The term inhibition denotes the drop in the measured response relative to a control, in per cent. As a reminder, the IC50 is the concentration that inhibits the measured activity by half.

The values that follow come from patent publication US6423689B1, “Peptidyl calcium channel blockers” (Warner-Lambert Company, priority 1997, dated 2002).

One test deals with T1, N-type Ca2+ channels in IMR-32 cells (Homo sapiens, UniProt Q00975).
T1 construct: host or cells: IMR-32 cells, differentiated with dibutyryl cAMP and bromodeoxyuridine
T1 sequence (Q00975 whole entry): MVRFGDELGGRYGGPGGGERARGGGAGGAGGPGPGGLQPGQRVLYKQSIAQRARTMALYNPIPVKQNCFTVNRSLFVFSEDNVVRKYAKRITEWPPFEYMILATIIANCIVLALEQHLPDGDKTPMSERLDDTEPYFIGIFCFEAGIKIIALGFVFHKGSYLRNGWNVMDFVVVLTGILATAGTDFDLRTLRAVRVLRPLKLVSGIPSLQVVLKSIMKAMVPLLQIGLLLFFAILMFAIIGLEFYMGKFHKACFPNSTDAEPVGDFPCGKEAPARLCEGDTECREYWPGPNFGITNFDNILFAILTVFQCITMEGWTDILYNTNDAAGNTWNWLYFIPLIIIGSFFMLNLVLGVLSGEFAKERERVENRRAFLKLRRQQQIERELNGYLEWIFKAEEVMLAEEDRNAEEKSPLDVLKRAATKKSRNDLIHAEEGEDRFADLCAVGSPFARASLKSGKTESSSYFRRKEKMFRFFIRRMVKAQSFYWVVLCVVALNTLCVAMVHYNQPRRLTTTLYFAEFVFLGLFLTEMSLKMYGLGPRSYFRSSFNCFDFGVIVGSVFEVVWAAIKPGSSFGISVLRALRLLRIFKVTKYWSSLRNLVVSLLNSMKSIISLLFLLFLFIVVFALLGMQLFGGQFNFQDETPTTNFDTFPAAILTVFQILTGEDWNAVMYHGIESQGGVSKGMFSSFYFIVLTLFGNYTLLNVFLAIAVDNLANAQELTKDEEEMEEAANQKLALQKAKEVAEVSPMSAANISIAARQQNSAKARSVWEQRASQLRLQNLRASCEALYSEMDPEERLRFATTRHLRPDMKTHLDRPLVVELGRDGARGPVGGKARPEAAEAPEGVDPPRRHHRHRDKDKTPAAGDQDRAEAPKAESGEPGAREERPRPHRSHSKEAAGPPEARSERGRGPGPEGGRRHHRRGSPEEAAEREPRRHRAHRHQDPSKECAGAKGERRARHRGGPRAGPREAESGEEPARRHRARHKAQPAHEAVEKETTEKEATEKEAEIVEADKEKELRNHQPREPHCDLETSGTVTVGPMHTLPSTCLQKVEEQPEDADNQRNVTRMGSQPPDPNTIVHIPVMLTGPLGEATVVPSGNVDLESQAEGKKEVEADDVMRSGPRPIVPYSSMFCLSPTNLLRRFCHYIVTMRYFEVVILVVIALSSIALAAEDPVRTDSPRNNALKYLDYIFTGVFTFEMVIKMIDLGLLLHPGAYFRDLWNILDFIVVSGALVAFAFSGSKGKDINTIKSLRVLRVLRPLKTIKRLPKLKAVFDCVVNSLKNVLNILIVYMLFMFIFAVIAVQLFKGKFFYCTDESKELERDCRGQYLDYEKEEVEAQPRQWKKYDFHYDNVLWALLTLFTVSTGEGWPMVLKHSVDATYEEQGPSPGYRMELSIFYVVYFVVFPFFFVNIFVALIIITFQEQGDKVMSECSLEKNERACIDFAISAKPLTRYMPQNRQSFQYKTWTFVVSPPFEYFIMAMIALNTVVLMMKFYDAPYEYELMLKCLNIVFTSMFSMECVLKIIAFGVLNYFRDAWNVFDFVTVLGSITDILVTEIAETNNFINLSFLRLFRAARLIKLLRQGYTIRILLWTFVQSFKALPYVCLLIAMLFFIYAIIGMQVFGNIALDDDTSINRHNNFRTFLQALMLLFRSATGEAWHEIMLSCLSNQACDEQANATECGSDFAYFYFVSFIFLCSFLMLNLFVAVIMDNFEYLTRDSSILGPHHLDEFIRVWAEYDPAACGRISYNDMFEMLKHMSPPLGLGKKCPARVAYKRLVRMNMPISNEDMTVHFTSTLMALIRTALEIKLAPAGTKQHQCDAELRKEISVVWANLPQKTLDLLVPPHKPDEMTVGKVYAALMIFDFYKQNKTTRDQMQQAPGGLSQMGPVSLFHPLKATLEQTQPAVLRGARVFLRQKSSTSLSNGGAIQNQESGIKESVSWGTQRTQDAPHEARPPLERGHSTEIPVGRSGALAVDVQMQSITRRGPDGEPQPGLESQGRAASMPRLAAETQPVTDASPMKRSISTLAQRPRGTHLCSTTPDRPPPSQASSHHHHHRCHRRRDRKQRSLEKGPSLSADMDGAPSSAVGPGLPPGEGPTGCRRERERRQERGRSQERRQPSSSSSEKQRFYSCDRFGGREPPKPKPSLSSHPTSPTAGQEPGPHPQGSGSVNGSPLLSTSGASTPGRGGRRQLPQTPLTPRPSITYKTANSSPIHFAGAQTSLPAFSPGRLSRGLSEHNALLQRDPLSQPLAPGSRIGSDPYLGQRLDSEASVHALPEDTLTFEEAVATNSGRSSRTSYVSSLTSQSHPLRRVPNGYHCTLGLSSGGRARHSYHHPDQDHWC
T1 sequence (P54289 25-956 partner limits assumed): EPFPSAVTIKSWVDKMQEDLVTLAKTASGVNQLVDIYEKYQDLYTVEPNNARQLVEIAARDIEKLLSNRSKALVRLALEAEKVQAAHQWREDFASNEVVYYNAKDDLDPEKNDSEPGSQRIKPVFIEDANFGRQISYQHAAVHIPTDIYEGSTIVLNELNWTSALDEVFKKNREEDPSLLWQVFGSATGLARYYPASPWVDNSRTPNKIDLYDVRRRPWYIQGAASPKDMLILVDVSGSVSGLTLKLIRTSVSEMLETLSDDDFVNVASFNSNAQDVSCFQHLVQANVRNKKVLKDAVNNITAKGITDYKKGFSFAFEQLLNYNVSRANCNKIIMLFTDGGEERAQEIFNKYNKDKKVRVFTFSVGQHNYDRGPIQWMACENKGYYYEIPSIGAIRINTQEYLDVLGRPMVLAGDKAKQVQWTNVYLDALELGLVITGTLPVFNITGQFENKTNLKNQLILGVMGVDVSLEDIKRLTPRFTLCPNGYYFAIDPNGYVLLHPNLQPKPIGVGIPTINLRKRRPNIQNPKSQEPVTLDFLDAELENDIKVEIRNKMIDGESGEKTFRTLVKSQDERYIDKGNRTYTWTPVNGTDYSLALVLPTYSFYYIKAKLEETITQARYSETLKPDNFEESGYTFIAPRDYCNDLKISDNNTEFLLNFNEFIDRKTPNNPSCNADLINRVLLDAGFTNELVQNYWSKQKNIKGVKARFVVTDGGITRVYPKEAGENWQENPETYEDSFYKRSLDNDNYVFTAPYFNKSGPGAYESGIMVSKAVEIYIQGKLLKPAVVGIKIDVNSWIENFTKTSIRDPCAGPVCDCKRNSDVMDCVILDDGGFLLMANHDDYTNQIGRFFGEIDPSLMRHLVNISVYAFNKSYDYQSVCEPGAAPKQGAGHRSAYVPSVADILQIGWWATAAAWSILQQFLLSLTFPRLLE
T1 sequence (P54289 957-1103 partner limits assumed): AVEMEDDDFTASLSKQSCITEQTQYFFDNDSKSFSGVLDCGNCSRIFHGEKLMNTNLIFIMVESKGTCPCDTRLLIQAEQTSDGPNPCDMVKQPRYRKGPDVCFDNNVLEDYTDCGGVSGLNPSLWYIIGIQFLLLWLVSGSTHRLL
T1 sequence (P54284 whole entry partner): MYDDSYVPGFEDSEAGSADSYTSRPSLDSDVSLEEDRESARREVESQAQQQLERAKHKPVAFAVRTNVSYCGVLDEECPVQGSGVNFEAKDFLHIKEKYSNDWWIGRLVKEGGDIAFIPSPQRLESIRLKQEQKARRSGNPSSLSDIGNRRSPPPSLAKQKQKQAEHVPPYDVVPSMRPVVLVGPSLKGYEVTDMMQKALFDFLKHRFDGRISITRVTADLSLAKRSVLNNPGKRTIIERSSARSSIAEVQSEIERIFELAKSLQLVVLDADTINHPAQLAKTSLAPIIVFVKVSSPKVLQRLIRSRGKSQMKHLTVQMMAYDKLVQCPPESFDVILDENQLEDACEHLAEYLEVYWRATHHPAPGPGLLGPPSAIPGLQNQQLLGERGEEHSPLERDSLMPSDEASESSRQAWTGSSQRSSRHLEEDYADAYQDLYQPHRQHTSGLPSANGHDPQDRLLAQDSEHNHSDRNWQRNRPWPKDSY
As to the kind of experiment: Inhibition of N-type calcium flux in IMR-32 cells (Indo-1 fluorescence, nitrendipine present). In kind it is cell-based. The settings on record: IMR-32. The procedure, abridged: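 Differentiated IMR-32 cells (7–13 days) were loaded with 5 μM Indo-1 AM, preincubated with compound for 10 min at 30° C, and depolarized with KCl/CaCl2 stimulation solution, with 5 μM nitrendipine blocking L-channels. Peak-minus-basal 400/490 nm emission ratio was plotted against drug concentration, and IC50 came from four-parameter logistic fits.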
On the technique in general: Calcium flux is commonly read through the fluorescence of an indicator in the cells.
Regarding `CC(C)C[C@H](NC(=O)N1CCCCCC1)C(=O)N[C@@H](Cc1ccc(OCc2ccccc2)cc1)C(=O)N1CCN(C)CC1` [Example 176, [S-(R*,R*)]-Azepane-1-carboxylic acid {1-[1-(4-benzyloxy-benzyl)-2-(4-methyl-piperazin-1-yl)-2-oxo-ethylcarbamoyl]-3-methyl-butyl}-amide], the inhibition at 1 µM was found to be 38% and the inhibition at 10 µM turned out to be 86%.

For the compound `CC(C)C[C@H](NC(=O)N1CCCCCC1)C(=O)N[C@@H](Cc1ccc(OCc2ccccc2)cc1)C(=O)NCCCN1CCN(C)CC1` [Example 187, [S-(R*,R*)]-Azepane-1-carboxylic acid (1-{2-(4-benzyloxy-phenyl)-1-[3-(4-methyl-piperazin-1-yl)-propylcarbamoyl]-ethylcarbamoyl}-3-methyl-butyl)-amide], the inhibition at 1 µM was found to be 20% and the inhibition at 10 µM was 77%.

The test is the same for the next values; noted with them: IMR-32 cells, 5 μM nitrendipine, K+ depolarization.
`CSCC[C@H](NC(=O)N1CCCCCC1)C(=O)N[C@@H](Cc1ccc(OCc2ccccc2)cc1)C(=O)NCCN1CCCCC1` [Example 154, [S-(R*,R*)]-Azepane-1-carboxylic acid {1-[2-(4-benzyloxy-phenyl)-1-(2-piperidin-1-ylethylcarbamoyl)-ethylcarbamoyl]-3-methylsulfanyl-propyl}-amide]: the IC50 amounted to 9600 nM.

On to `CSCC[C@H](NC(=O)N1CCCCCC1)C(=O)N[C@@H](Cc1ccc(OCc2ccccc2)cc1)C(=O)NC(C)(C)C` [Example 155, [S-(R*,R*)]-Azepane1-carboxylic acid {1-[2-(4-benzyloxy-phenyl)-1-tert-butylcarbamoyl-ethylcarbamoyl]-3-methylsulfanyl-propyl}-amide], for which the IC50 worked out at 2500 nM.

With `O=C(NCCN1CCCCC1)[C@H](Cc1ccc(OCc2ccccc2)cc1)NC(=O)[C@H](Cc1ccc(O)cc1)NC(=O)N1CCCCCC1` [Example 156, [S-(R*,R*)]-Azepane-1-carboxylic acid [1-[2-(4-benzyloxy-phenyl)-1-(2-piperidin-1-ylethylcarbamoyl)-ethylcarbamoyl]-2-(4-hydroxy-phenyl)-ethyl]-amide], the IC50 came to 5300 nM.

On to `O=C(NCCN1CCCCC1)[C@H](Cc1ccc(OCc2ccccc2)cc1)NC(=O)[C@H](Cc1ccc(Br)cc1)NC(=O)N1CCCCCC1` [Example 157, [S-(R*,R*)]-Azepane-1-carboxylic acid [1-[2-(4-benzyloxy-phenyl)-1-(2-piperidin-1-ylethylcarbamoyl)-ethylcarbamoyl]-2-(4-bromo-phenyl)-ethyl]-amide], for which the IC50 is 2300 nM.

Regarding `CC(C)(C)NC(=O)[C@H](Cc1ccc(OCc2ccccc2)cc1)NC(=O)[C@H](Cc1ccc(O)cc1)NC(=O)N1CCCCCC1` [Example 160, [S-(R*,R*)]-Azepane-1-carboxylic acid [1-[2-(4-benzyloxy-phenyl)-1-tert-butylcarbamoyl-ethylcarbamoyl]-2-(4-hydroxy-phenyl)-ethyl]-amide], the concentration for half-maximal inhibition (IC50) worked out at 2500 nM.

Regarding `CC(C)(C)NC(=O)[C@H](Cc1ccc(OCc2ccccc2)cc1)NC(=O)[C@H](Cc1ccc(OC(C)(C)C)cc1)NC(=O)N1CCCCCC1` [Example 163, [S-(R*,R*)]-Azepane-1-carboxylic acid [1-[2-(4-benzyloxy-phenyl)-1-tert-butylcarbamoyl-ethylcarbamoyl]-2-(4-tert-butoxy-phenyl)-ethyl]-amide], the IC50 came to 490 nM.

In the case of `CC(C)(C)NC(=O)[C@H](Cc1ccc(OCc2ccccc2)cc1)NC(=O)[C@H](CCCCC(=O)OC(C)(C)C)NC(=O)N1CCCCCC1` [Example 164, [S-(R*,R*)]-6-[(Azepane-1-carbonyl)-amino]-6-[2-(4-benzyloxy-phenyl)-1-tert-butylcarbamoyl-ethylcarbamoyl]-hexanoic acid tert-butyl ester], the concentration for half-maximal inhibition (IC50) worked out at 900 nM.

Regarding `CC(C)C[C@H](NC(=O)N1CCCCCC1)C(=O)N[C@@H](Cc1ccc(OCc2ccccc2)cc1)C(=O)N1CCOCC1` [Example 166, [S-(R*,R*)]-Azepane-1-carboxylic acid {1-[1-(4-benzyloxy-benzyl)-2-morpholin-4-yl-2-oxo-ethylcarbamoyl]-3-methyl-butyl}-amide], the IC50 is 1300 nM.

As for `CCCCCCNC(=O)[C@H](Cc1ccc(OCc2ccccc2)cc1)NC(=O)[C@H](CC(C)C)NC(=O)N1CCCCCC1` [Example 168, [S-(R*,R*)]-Azepane-1-carboxylic acid {1-[2-(4-benzyloxy-phenyl)-1-hexylcarbamoyl-ethylcarbamoyl]-3-methyl-butyl}-amide], the IC50 is 680 nM.

Consider `CCCNC(=O)[C@H](Cc1ccc(OCc2ccccc2)cc1)NC(=O)[C@H](CC(C)C)NC(=O)N1CCCCCC1` [Example 169, [S-(R*,R*)]-Azepane-1-carboxylic acid {1-[2-(4-benzyloxy-phenyl)-1-propylcarbamoyl-ethylcarbamoyl]-3-methyl-butyl}-amide], for which the IC50 came out at 1600 nM.

In the case of `CC(C)C[C@H](NC(=O)N1CCCCCC1)C(=O)N[C@@H](Cc1ccc(OCc2ccccc2)cc1)C(=O)NCCN1CCCC1=O` [Example 170, [S-(R*,R*)]-Azepane-1-carboxylic acid (1-{2-(4-benzyloxy-phenyl)-1-[2-(2-oxo-pyrrolidin-1yl)-ethylcarbamoyl]-ethylcarbamoyl}-3-methyl-butyl)-amide], the IC50 amounted to 1300 nM.

Regarding `CC(C)C[C@H](NC(=O)N1CCCCCC1)C(=O)N[C@@H](Cc1ccc(OCc2ccccc2)cc1)C(=O)NCCc1c[nH]cn1` [Example 172, [S-(R*,R*)]-Azepane-1-carboxylic acid (1-{2-(4-benzyloxy-phenyl)-1-[2-(1H-imidazol-4-yl)ethylcarbamoyl]-ethylcarbamoyl}-3-methyl-butyl)-amide], the IC50 is 2300 nM.

Consider `CC(C)C[C@H](NC(=O)N1CCCCCC1)C(=O)N[C@@H](Cc1ccc(OCc2ccccc2)cc1)C(=O)NCCN(C)C` [Example 175, [S-(R*,R*)]-Azepane-1-carboxylic acid {1-[2-(4-benzyloxy-phenyl)-1-(2-dimethylamino-ethylcarbamoyl)-ethylcarbamoyl]-3-methyl-butyl}-amide], for which the IC50 came out at 2700 nM.

In the case of `CC(C)C[C@H](NC(=O)N1CCCCCC1)C(=O)N[C@@H](Cc1ccc(OCc2ccccc2)cc1)C(=O)N1CCN(C)CC1` [Example 176, [S-(R*,R*)]-Azepane-1-carboxylic acid {1-[1-(4-benzyloxy-benzyl)-2-(4-methyl-piperazin-1-yl)-2-oxo-ethylcarbamoyl]-3-methyl-butyl}-amide], the IC50 turned out to be 1400 nM.

`CC(C)C[C@H](NC(=O)N1CCCCCC1)C(=O)N[C@@H](Cc1ccc(OCc2ccccc2)cc1)C(=O)NCc1ccncc1` [Example 178, [S-(R*,R*)]-Azepane-1-carboxylic acid (1-{2-(4-benzyloxy-phenyl)-1-[(pyridin-4-ylmethyl)carbamoyl]-ethylcarbamoyl}-3-methyl-butyl)-amide]: the IC50 came out at 3100 nM.

As to `CC(C)C[C@H](NC(=O)N1CCCCCC1)C(=O)N[C@@H](Cc1ccc(OCc2ccccc2)cc1)C(=O)N1CCC[C@H]1CN1CCCC1` [Example 179, Azepane-1-carboxylic acid {(S)-1-[(S)-1-(4-benzyloxy-benzyl)-2-oxo-2-[(S)-2-pyrrolidin-1-ylmethyl-pyrrolidin-1-yl]-ethylcarbamoyl]-3-methyl-butyl}-amide], the IC50 turned out to be 1400 nM.

`CC(C)C[C@H](NC(=O)N1CCCCCC1)C(=O)N[C@@H](Cc1ccc(OCc2ccccc2)cc1)C(=O)NCCN1CCCC1` [Example 181, [S-(R*,R*)]-Azepane-1-carboxylic acid {1-[2-(4-benzyloxy-phenyl)-1-(2-pyrrolidin-1-ylethylcarbamoyl)-ethylcarbamoyl]3-methyl-butyl}-amide]: the IC50 amounted to 2800 nM.

Take `CC(C)C[C@H](NC(=O)N1CCCCCC1)C(=O)NC(Cc1ccc(OCc2ccccc2)cc1)C(=O)N[C@@H]1CN2CCC1CC2` (stereo partly drawn) [Example 182, Azepane-1-carboxylic acid {(S)-1-[-1-[(S)-1-aza-bicyclo [2.2.2]-3-ylcarbamoyl]-2-(4-benzyloxy-phenyl)-ethylcarbamoyl]-3-methyl-butyl}-amide]: the IC50 was found to be 7700 nM.

As to `CC(C)C[C@H](NC(=O)N1CCCCCC1)C(=O)N[C@@H](Cc1ccc(OCc2ccccc2)cc1)C(=O)N1CCC(N2CCCCC2)CC1` [Example 185, [S-(R*,R*)]-Azepane-1-carboxylic acid {1-[1-(4-benzyloxy-benzyl)-2-[1,4′]bipiperidinyl-1′-yl-2-oxo-ethylcarbamoyl]-3-methyl-butyl}-amide], the half-maximal inhibitory concentration (IC50) stood at 2300 nM.

Take `CC(C)C[C@H](NC(=O)N1CCCCCC1)C(=O)N[C@@H](Cc1ccc(OCc2ccccc2)cc1)C(=O)NCCCN1CCN(C)CC1` [Example 187, [S-(R*,R*)]-Azepane-1-carboxylic acid (1-{2-(4-benzyloxy-phenyl)-1-[3-(4-methyl-piperazin-1-yl)-propylcarbamoyl]-ethylcarbamoyl}-3-methyl-butyl)-amide]: the IC50 was 4000 nM.

For the compound `CCN(CC)C(=O)C1CCCN(C(=O)C(Cc2ccc(OCc3ccccc3)cc2)NC(=O)C(CC(C)C)NC(=O)N2CCCCCC2)C1` (centres unmarked) [Example 188, Azepane-1-carboxylic acid {1-[1-(4-benzyloxy-benzyl)-2-(3-diethylcarbamoyl-piperidin-1-yl)-2-oxo-ethylcarbamoyl]-3-methyl-butyl}-amide], the IC50 worked out at 780 nM.

With `CCN(CC)C(=O)C1CCCN(C(=O)C(Cc2ccc(OCc3ccccc3)cc2)NC(=O)C(CC(C)C)NC(=O)N2CCCCCC2)C1` (centres unmarked) [Example 189, Azepane-1-carboxylic acid {1-[1-(4-benzyloxy-benzyl)-2-(3-diethylcarbamoyl-piperidin-1-yl)-2-oxo-ethylcarbamoyl]-3-methyl-butyl}-amide], the IC50 came to 940 nM.

Regarding `CC(C)CC(NC(=O)N1CCCCCC1)C(=O)NC(Cc1ccc(OCc2ccccc2)cc1)C(=O)NCC(O)c1ccccc1` (centres unmarked) [Example 190, Azepane-1-carboxylic acid {1-[2-(4-benzyloxy-phenyl)-1-(2-hydroxy-2phenyl-ethylcarbamoyl)-ethylcarbamoyl]-3-methyl-butyl}-amide], the IC50 amounted to 790 nM.

For `CC(C)CC(NC(=O)N1CCCCCC1)C(=O)NC(Cc1ccc(OCc2ccccc2)cc1)C(=O)NCCC1CCCN1C` (centres unmarked) [Example 193, Azepane-1-carboxylic acid (1-{2-(4-benzyloxy-phenyl)-1-[2-(1-methyl-pyrrolidin-2-yl)-ethylcarbamoyl]-ethylcarbamoyl}-3-methyl-butyl)-amide], the IC50 was found to be 3200 nM.

`CCCN1CCCC(NC(=O)C(Cc2ccc(OCc3ccccc3)cc2)NC(=O)C(CC(C)C)NC(=O)N2CCCCCC2)C1` (centres unmarked) [Example 195, Azepane-1-carboxylic acid {1-[2-(4-benzyloxy-phenyl)-1-(1-propyl-piperidin-3-ylcarbamoyl)-ethylcarbamoyl]-3-methyl-butyl}-amide]: the IC50 turned out to be 580 nM.
